From patent US20060140991A1, “Pharmaceutical preparations having an improved solubility” (AJINOMOTO CO. INC, priority 2003, published 2006)
Values after ≈ are worked out from the molar mass of the structure shown.

Key:
[1] = Solubility in water at room temperature
[2] = Solubilization by fixing the micelle structure: drug concentration in the clear neutral liquid; format: physicochemical; conditions: for clear liquid obtained: no alkali; for clear liquid obtained / concentration of AP-1067 in clear neutral liquid containing solubilized drug: 45° C.; for concentration of AP-1067 in clear neutral liquid containing solubilized drug: pH adjusted to neutral
Description: (§1) About 10 mg of AP-1067 was dispersed into 1 mL of water. An aqueous solution of sodium hydroxide was added thereto to adjust the solution to pH=13 or above. The suspension was heated up to 45° C. to obtain a clear alkali aqueous liquid containing solubilized AP-1067 wherein a micelle of AP-1067 was formed. (AP-1067 concentration: about 10 mg/mL)
(§2) 40 mg of sodium dodecyl sulfate (SDS) was added to the alkali aqueous liquid to fix the formed micelle structure. Then, an aqueous solution of hydrochloric acid was added dropwise thereto and its pH was adjusted to neutral to obtain a clear neutral liquid containing slubilized AP-1067 wherein the micelle of AP-1067 existed in the fixed manner. The concentration of AP-1067 at that time was 9.1 mg/mL.
as §1, with “solution of” for “liquid containing solubilized”
as §2, with “100 mg” for “40 mg”, “of Polysorbate 80” for “of sodium dodecyl sulfate (SDS)”, “aqueous solution” for “aqueous liquid”, “containing solubilized” for “containing slubilized”, “was 10.3” for “was 9.1”
10 mg of AP-1067 and 40 mg of SDS were dispersed into 1 mL of water. The suspension was heated up to 45° C., and the ultrasonic treatment was conducted for 1.5 hours.
10 mg of AP-1067 and 100 mg of Polysorbate 80 were dispersed into 1 mL of water. The suspension was heated up to 45° C., and the ultrasonic treatment was conducted for 1.5 hours.
10 mg of APC0576 and 83 mg of cetylpyridinium chloride monohydrate were dispersed and dissolved into 1 mL of an aqueous solution of 1.5 mol/L hydrochloric acid. The suspension was heated up to 50° C., and the ultrasonic treatment was conducted thereto to obtain a clear acidic aqueous liquid containing solubilized APC0576 wherein a micelle of the poorly-soluble drug APC0576 existed in the fixed manner. (APC0576 concentration: about 10 mg/mL)
An aqueous solution of 10 mol/L sodium hydroxide was added dropwise to the acidic aqueous liquid to adjust its pH to nearly neutral to obtain about 7 mg/mL of a clear liquid containing solubilized APC0576 wherein the micelle of APC0576 existed in the fixed manner. (see FIG. 3)
10 mg of APC0576 and 85 mg of cetylpyridinium chloride monohydrate were dissolved into 1 mL of water. The suspension was heated up to 50° C., and the ultrasonic treatment was conducted for 1.5 hours. […] (see FIG. 3)

clear solubilized solution obtained ([2]; Comparative Example 3: 10 mg drug and 85 mg cetylpyridinium chloride monohydrate in 1 mL water, no acid, 50° C., ultrasonic 1.5 hours) | concentration of clear liquid containing solubilized APC0576 ([2]; Example 3: 83 mg cetylpyridinium chloride monohydrate, 1.5 mol/L hydrochloric acid, 50° C., ultrasonic, pH adjusted to nearly neutral) | Structure (SMILES) | solubility [1] | clear liquid obtained ([2]; Comparative Example 1: 10 mg drug and 40 mg SDS in 1 mL water, ultrasonic 1.5 hours) | clear liquid obtained ([2]; Comparative Example 2: 10 mg drug and 100 mg Polysorbate 80 in 1 mL water, ultrasonic 1.5 hours) | concentration of AP-1067 in clear neutral liquid containing solubilized drug ([2]; Example 1: micelle formed at pH=13 or above, fixed with 40 mg SDS) | concentration of AP-1067 in clear neutral liquid containing solubilized drug ([2]; Example 2: micelle formed at pH=13 or above, fixed with 100 mg Polysorbate 80)
could not be obtained | about 7 mg/mL | CC1(C)C[C@@H]1C(=O)Nc1ccc(Oc2ccc(NC(=O)[C@H]3CC3(C)C)cn2)cc1 [APC0576, 5-(((S)-2,2-dimethyl-cyclopropancarbonyl)amino)-2-(4-(((S)-2,2-dimethylcyclopropancarbonyl)amino)phenoxy)pyridine] | ~1.6 µg/mL (≈ 4.07 µM) |  |  |  | 
 |  | Cl.NS(=O)(=O)c1ccc(/C=C/CN2CCC(=C3c4ccccc4C=Cc4ccccc43)CC2)cc1 [AP-1067, (4-(5H-dibenzo[a,d]cyclohepten-5-ylidene)-1-[3-[4-sulfamoylphenyl]-2(E)-propenyl]-piperidine, monohydro-chloride)] | ~30 µg/mL | could not be obtained | could not be obtained | 9100 µg/mL | 10300 µg/mL
